What all share (assay): DTP human tumour cell line panel, 48 h
Assay [1] has as its system SF-268.
Assay [2] deals with SNB-75.
The test system of assay [3] is NCI-H460.
Assay [4] has as its system HOP-92.
Assay [5] has as its system SK-MEL-5.
In assay [6] the test system is HCT-116.
Assay [7] relates to SK-OV-3.
The test system of assay [8] is K562.
Assay [9] has as its system RPMI-8226.
Assay [10] concerns CAKI-1.
Assay [11] relates to OVCAR-3.
Assay [12] concerns SW-620.
Assay [13] has as its system KM12.
The subject of assay [14] is IGROV-1.
The subject of assay [15] is U-251.
Assay [16] concerns SN12C.
Assay [17] has as its system M14.
Assay [18] relates to HCT-15.

SMILES strings stand for the structures.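 The compound was tested at five concentrations on cells cultured in 96-well plates, with a 48-hour exposure period. GI50 marks 50% less growth.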 Active and inactive are the calls of the source. Cut-off read from the data, not from the text of the source: active = GI50 up to about 1.1 µM and inactive = higher.

One may read the GI50 as the concentration giving 50% growth inhibition. Consider `C/C(=N/NC(=O)c1ccccc1S(N)(=O)=O)C(CN1CCCCC1)C(C1=C(O)C2C=CC=CC2OC1=O)c1ccccc1` (configuration not stated), for which the GI50 in assay [1] was 58.5 µM (inactive); in assay [2], > 100 µM (inactive); in assay [3] it was 77.4 µM (inactive); in [4] it was 14 µM (inactive); in assay [5] it was 56.9 µM (inactive); in assay [6], > 100 µM (inactive). For the same compound, the GI50 in assay [7] is > 100 µM (inactive); in [8], 43.6 µM (inactive); in [9], 25.5 µM (inactive); in [10], > 100 µM (inactive); in assay [11], 41.6 µM (inactive); in [12], 31.8 µM (inactive). Further, the GI50 was 97.3 µM (inactive) in assay [13]; > 100 µM (inactive) in assay [14]; 89.1 µM (inactive) in assay [15]; 78.7 µM (inactive) in assay [16]; 78.3 µM (inactive) in assay [17]; 49.9 µM in assay [18].
Take `COc1ccc(/C=C(\C2=NC(=O)CS2)c2nc3ccccc3[nH]2)cc1`: the GI50 is > 100 µM (inactive) in assay [1]; 28.1 µM (inactive) in assay [2]; 38.9 µM (inactive) in assay [3]; 80.2 µM (inactive) in assay [4]; 37.6 µM (inactive) in [5]; 85.1 µM (inactive) in assay [6]. Also, the GI50 in assay [7] is 15.8 µM (inactive); in [8], 78.2 µM (inactive); in assay [9], > 100 µM (inactive); in assay [10] it was > 100 µM (inactive); in [11], 22 µM (inactive); in assay [12], > 100 µM (inactive). Moreover, the GI50 in assay [13] was 35.2 µM (inactive); in assay [14] it was 52.1 µM (inactive); in assay [15] it was 42.3 µM (inactive); in assay [16] it was 52.4 µM (inactive); in assay [17], 93.1 µM (inactive); in [18] it was 83.8 µM.
As to `O=C(NNc1ccc([N+](=O)[O-])cc1)C1OC(CO)C(O)C1O` (configuration not stated), the GI50 in assay [1], in assay [2], in assay [3], in assay [4], in assay [5] and in assay [6] was > 100 µM (inactive) throughout. In addition, the GI50 was > 100 µM (inactive) in assay [7]; 67 µM (inactive) in assay [8]; 30.5 µM (inactive) in assay [9]; > 100 µM (inactive) in assay [10]; > 100 µM (inactive) in assay [11]; 21.8 µM (inactive) in assay [12]. For the same compound, the GI50 in assay [13] is 81.8 µM (inactive); in [14], > 100 µM (inactive); in [15] it was > 100 µM (inactive); in assay [16], > 100 µM (inactive); in assay [17], > 100 µM (inactive); in assay [18], 54.8 µM.
Turning to `NC(CCCCNCc1ccccc1)C(=O)O` (configuration not stated), the GI50 in [1], in assay [2], in assay [3], in assay [4], in assay [5] and in assay [6] was > 100 µM (inactive) in each case. Moreover, the GI50 in assay [7], in assay [8], in assay [9], in assay [10], in assay [11] and in assay [12] was > 100 µM (inactive) throughout. The GI50 in assay [13] was > 100 µM (inactive); in assay [14] it was > 100 µM (inactive); in [15] it was > 100 µM (inactive); in assay [16], > 100 µM (inactive); in assay [17], > 100 µM (inactive); in assay [18] it was greater than 100 µM.

The values above are taken from ChEMBL document CHEMBL1201862, “PubChem BioAssay data set” (2004).
